Assay results reported in patent US8309568B2, “Transdermally deliverable opioid prodrugs, abuse-resistant compositions and methods of using opioid prodrugs” (Alltranz Inc., priority 2006, dated 2012).
Where two headings read alike, the source gives them in different places.

Key:
[1] = not given; remark: listed apart in the source
[2] = Table 8, gel formulation, analyte buprenorphine from prodrug
[3] = Table 8, gel formulation, analyte intact prodrug
[4] = Table 8, gel formulation, analyte total buprenorphine (buprenorphine and/or prodrug)
[5] = Table 8, gel formulation, total buprenorphine flux relative to buprenorphine
[6] = Table 9, propylene glycol, analyte buprenorphine from prodrug
[7] = Table 9, propylene glycol, analyte intact prodrug
[8] = Table 9, propylene glycol, analyte total buprenorphine (buprenorphine and/or prodrug)
[9] = Table 12, propylene glycol/ethanol [96:4], analyte buprenorphine from prodrug
[10] = Table 12, propylene glycol/ethanol [96:4], analyte intact prodrug
[11] = Table 12, propylene glycol/ethanol [96:4], analyte total buprenorphine (buprenorphine and/or prodrug)
[12] = Table 13, gel formulation, analyte buprenorphine from prodrug
[13] = Table 13, gel formulation, analyte total buprenorphine (buprenorphine and/or prodrug)
[14] = Table 6, propylene glycol, 25% aq. ethanol receiver, analyte buprenorphine from prodrug
[15] = Table 6, propylene glycol, 25% aq. ethanol receiver, analyte intact prodrug
[16] = Table 6, propylene glycol, 25% aq. ethanol receiver, analyte total buprenorphine (buprenorphine and/or prodrug)
[17] = Table 11, propylene glycol, analyte buprenorphine from prodrug
[18] = Table 11, propylene glycol, analyte total buprenorphine (buprenorphine and/or prodrug)
[19] = Table 11, propylene glycol, total buprenorphine flux relative to buprenorphine
[20] = Table 11, propylene glycol, analyte intact prodrug
[21] = Table 10, gel formulation, analyte intact prodrug
[22] = Table 10, gel formulation, analyte total buprenorphine (buprenorphine and/or prodrug)

COCCOCCOCCOC(=O)Oc1ccc2c3c1OC1C4(OC)CC[C@]5(CC4C(C)(O)C(C)(C)C)[C@@H](C2)N(CC2CC2)CC[C@]315 (stereo partly drawn) [ALL00106, Buprenorphine 3,6,9-trioxadecyl carbonate]
form in which the prodrug permeated through the skin (Hanks' buffer receiver fluid): permeated through the human skin as buprenorphine | 24 h cumulative amt (Table 3, donor propylene glycol, Hanks' buffer receiver, buprenorphine permeated): 11.4 ± 0.8 nmol | Flux (Table 3, donor propylene glycol, Hanks' buffer receiver, total buprenorphine flux): 0.54±0.07 nmol/cm^2/h | Flux enhancement (Table 3, donor propylene glycol, flux relative to buprenorphine): 1.20 | 24 h cumulative amt [2]: 1.7 ± 0.3 nmol | Flux [2]: 0.2 ± 0.1 nmol/cm^2/h | Lag time [2]: 4.7 ± 1.5 h | 24 h cumulative amt [3]: 3.8 ± 0.3 nmol | Flux [3]: 0.3 ± 0.0 nmol/cm^2/h | Lag time [3]: 8.2 ± 0.8 h | 24 h cumulative amt [4]: 5.5 ± 0.5 nmol | Flux [4]: 0.4 ± 0.1 nmol/cm^2/h | Lag time [4]: 6.5 ± 1.1 h | Flux enhancement [5]: 0.4 | 24 h cumulative amt [6]: 30.1 ± 13.2 nmol | Flux [6]: 2.3 ± 0.8 nmol/cm^2/h | Lag time [6]: 10.2 ± 1.4 h | 24 h cumulative amt [7]: 18.8 ± 4.6 nmol | Flux [7]: 1.5 ± 0.3 nmol/cm^2/h | Lag time [7]: 11.1 ± 1.2 h | 24 h cumulative amt [8]: 48.9 ± 17.6 nmol | Flux [8]: 3.8 ± 1.1 nmol/cm^2/h | Lag time [8]: 10.6 ± 1.3 h | Flux enhancement (Table 9, propylene glycol, total buprenorphine flux relative to buprenorphine): 3.2 | 24 h skin conc ([1]; Table 3, donor propylene glycol, Hanks' buffer receiver, analyte buprenorphine (Bup)): 0.2 ± 0.1 (Bup) μmol/g | 24 h skin conc ([1]; Table 3, donor propylene glycol, Hanks' buffer receiver, analyte intact prodrug (PD)): 2.1 ± 1.5 (PD) μmol/g | 24 h skin conc [1, 2]: 0.3 ± 0.1 µmol/g | 24 h skin conc [1, 3]: 11.9 ± 3.6 µmol/g | 24 h skin conc [1, 4]: 12.2 ± 3.6 µmol/g | 24 h skin conc [1, 6]: 1.6 ± 0.4 µmol/g | 24 h skin conc [1, 7]: 10.4 ± 4.0 µmol/g | 24 h skin conc [1, 8]: 11.9 ± 4.4 µmol/g

COCCOCCOCCOCC(=O)Oc1ccc2c3c1OC1C4(OC)CC[C@]5(CC4C(C)(O)C(C)(C)C)[C@@H](C2)N(CC2CC2)CC[C@]315 (stereo partly drawn) [ALL00116, Buprenorphine 3,6,9,12-tetraoxatridecanoyl ester]
24 h cumulative amt [9]: 8.7 ± 1.2 nmol | Flux [9]: 0.8 ± 0.2 nmol/cm^2/h | Lag time [9]: 13.2 ± 0.8 h | 24 h cumulative amt [10]: 21.7 ± 6.7 nmol | Flux [10]: 1.9 ± 0.6 nmol/cm^2/h | Lag time [10]: 11.8 ± 1.4 h | 24 h cumulative amt [11]: 30.4 ± 7.0 nmol | Flux [11]: 2.7±0.7 nmol/cm^2/h | Lag time [11]: 12.3 ± 1.2 h | Flux enhancement (Table 12, propylene glycol/ethanol [96:4], total buprenorphine flux relative to buprenorphine): 9.2 | 24 h cumulative amt [12]: 5.5 ± 0.6 nmol | Flux [12]: 0.4 ± 0.1 nmol/cm^2/h | Lag time [12]: 7.2 ± 0.6 h | 24 h cumulative amt [13]: 5.5 ± 0.6 nmol | Flux [13]: 0.4±0.1 nmol/cm^2/h | Lag time [13]: 7.2 ± 0.6 h | Flux enhancement (Table 13, gel formulation, total buprenorphine flux relative to buprenorphine): 1.2 | 24 h skin conc [1, 9]: 2.4 ± 0.9 µmol/g | 24 h skin conc [1, 10]: 20.4 ± 5.8 µmol/g | 24 h skin conc [1, 11]: 22.7 ± 6.8 µmol/g | 24 h skin conc [1, 12]: 0.2 ± 0.0 µmol/g | 24 h skin conc ([1]; Table 13, gel formulation, analyte intact prodrug): 3.3 ± 0.8 µmol/g | 24 h skin conc [1, 13]: 3.5 ± 0.9 µmol/g

COCCOCCOCC(=O)Oc1ccc2c3c1O[C@H]1[C@@]4(OC)CC[C@@]5(C[C@@H]4[C@@](C)(O)C(C)(C)C)[C@@H](C2)N(CC2CC2)CC[C@]315 [ALL00108, Buprenorphine 2-[2-(2-methoxyethoxy)ethoxy]acetyl ester]
24 h cumulative amt [14]: 9.7 ± 0.4 nmol | Flux [14]: 0.90 ± 0.07 nmol/cm^2/h | Lag time [14]: 12.5 ± 1.3 h | 24 h cumulative amt [15]: 7.6 ± 2.0 nmol | 24 h cumulative amt [16]: 17.3 ± 1.6 nmol | Flux [16]: 1.01±0.07 nmol/cm^2/h | Lag time [16]: 6.0 ± 0.5 h | Flux enhancement (Table 6, propylene glycol, 25% aq. ethanol receiver, total buprenorphine flux relative to buprenorphine): 2.35 | 24 h cumulative amt [2]: 21.0 ± 6.7 nmol | Flux [2]: 1.2 ± 0.6 nmol/cm^2/h | Lag time [2]: 7.8 ± 0.8 h | 24 h cumulative amt [4]: 21.0 ± 6.7 nmol | Flux [4]: 1.2±0.6 nmol/cm^2/h | Lag time [4]: 7.8 ± 0.8 h | Flux enhancement [5]: 1.3 | 24 h cumulative amt [17]: 5.8 ± 0.7 nmol | Flux [17]: 0.5 ± 0.0 nmol/cm^2/h | Lag time [17]: 10.9 ± 2.4 h | 24 h cumulative amt [18]: 5.8 ± 0.7 nmol | Flux [18]: 0.5±0.0 nmol/cm^2/h | Lag time [18]: 10.9 ± 2.4 h | Flux enhancement [19]: 1.7 | form in which the prodrug permeated through the skin (aqueous ethanol receiver fluid): permeated through the skin as buprenorphine and intact prodrug | cumulative amount (nmol) higher than the buprenorphine base (aqueous ethanol receiver, propylene glycol, relative to buprenorphine base): 4 × | 24 h skin conc [1, 14]: 0.4 ± 0.1 µmol/g | 24 h skin conc [1, 15]: 1.0 ± 0.3 µmol/g | 24 h skin conc [1, 16]: 1.4 ± 0.4 µmol/g | 24 h skin conc [1, 2]: 0.2 ± 0.2 µmol/g | 24 h skin conc [1, 3]: 1.9 ± 1.6 µmol/g | 24 h skin conc [1, 4]: 2.2 ± 1.8 µmol/g | 24 h skin conc [1, 20]: 2.4 ± 0.7 µmol/g | 24 h skin conc [1, 18]: 2.4 ± 0.7 µmol/g

COCCOCCOCCOCCOC(=O)Oc1ccc2c3c1OC1C4(OC)CC[C@]5(CC4C(C)(O)C(C)(C)C)[C@@H](C2)N(CC2CC2)CC[C@]315 (stereo partly drawn) [ALL00115, Buprenorphine 3,6,9,12-tetraoxatridecyl carbonate]
24 h cumulative amt [21]: 4.5 ± 1.3 nmol | Flux [21]: 0.2 ± 0.1 nmol/cm^2/h | Lag time [21]: 7.6 ± 0.5 h | 24 h cumulative amt [22]: 4.5 ± 1.3 nmol | Flux [22]: 0.2±0.1 nmol/cm^2/h | Lag time [22]: 7.6 ± 0.5 h | Flux enhancement (Table 10, gel formulation, total buprenorphine flux relative to buprenorphine): 1.2 | 24 h cumulative amt [20]: 6.0 ± 1.3 nmol | 24 h cumulative amt [18]: 6.0 ± 1.3 nmol | Flux [18]: 0.7±0.2 nmol/cm^2/h | Lag time [18]: 9.4 ± 8.5 h | Flux enhancement [19]: 2.3 | form detected in the receiver fluid (both the gel formulation and propylene glycol): mostly detected as intact prodrug | 24 h skin conc ([1]; Table 10, gel formulation, analyte buprenorphine from prodrug): 0.1 ± 0.0 µmol/g | 24 h skin conc [1, 21]: 3.4 ± 0.6 µmol/g | 24 h skin conc [1, 22]: 1.4 ± 0.4 µmol/g | 24 h skin conc [1, 20]: 0.8 ± 0.2 µmol/g | 24 h skin conc [1, 18]: 0.8 ± 0.2 µmol/g
